Laboratory results reported in US6562828B1, “Amidine compounds” (Japan Tobacco Inc., priority 1998, dated 2003).
Counter-ions that a name gives are not always drawn.

Tests used:
Human FIIa = target: T1, Human FIIa (Homo sapiens, UniProt P00734); test: Determination of anti-factor IIa (FIIa) activity, synthetic substrate S-2238; type: biochemical; details: S-2238, 37° C., pH 8.4, read-out: Experimental Example 2: anti-FIIa activity, IC50
T1 construct: purchased Sigma

Human FXa = target: T2, Human FXa (Homo sapiens, UniProt P00742); test: Intravenous administration test in monkey, human FXa inhibitory activity in plasma; type: in vivo; details: crab-eating monkey, i.v., mean ± S.D., n = 3
T2 construct: Human FXa [Enzyme research Laboratories (USA)] enzyme; purchased Enzyme Research Laboratories (USA)
Description: Human FXa inhibitory activity was measured as follows. Human FXa [Enzyme research Laboratories (USA)] enzyme (40 μl, 0.5 U/ml) and a 4-fold diluted plasma sample (40 μl) were incubated in 0.1M Tris-0.2M NaCl buffer (pH 8.4) (40 μl) at 37° C. for 10 min. A synthetic substrate S-2222 (Daiichi Pure Chemical (Tokyo, Japan), 40 μl) adjusted to 0.8 mM was added and the mixture was incubated at 37° C. for 5 min. The reaction was stopped by addition of 60% acetic acid (40 μl) and absorbance at 405 nm was measured by Model 3550 (BIO-RAD). For the control, serum or plasma obtained prior to blood sampling was used for measurement. Human FXa inhibitory activity was calculated as inhibition percentage (%) against control.
Intravenous Administration Tests in Monkey
A test compound dissolved in physiological saline was intravenously administered to monkey (crab-eating monkey, body weight 3.5-4.5 kg) and the activity of the test compound was evaluated based on the human FXa inhibitory activity in plasma as an indicator.
At 10, 30, 60, 120, 180 min from the intravenous administration, blood was taken from the saphenous vein with the passage of time and the blood was centrifuged at 2000 G for 10 min. The obtained citric acid plasma was used for the determination. Human FXa inhibitory activity was determined in the same manner as in the test using mouse.

T2 sequence (P00742 235-488 limits assumed): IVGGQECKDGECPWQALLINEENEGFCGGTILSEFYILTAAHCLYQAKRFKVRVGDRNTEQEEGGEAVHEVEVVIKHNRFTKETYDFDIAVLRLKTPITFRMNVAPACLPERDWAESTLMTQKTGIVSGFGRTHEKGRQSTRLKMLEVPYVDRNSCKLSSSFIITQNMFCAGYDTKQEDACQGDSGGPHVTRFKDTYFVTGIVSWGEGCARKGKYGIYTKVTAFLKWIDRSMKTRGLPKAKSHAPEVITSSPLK
T2 sequence (P00742 41-179 limits assumed): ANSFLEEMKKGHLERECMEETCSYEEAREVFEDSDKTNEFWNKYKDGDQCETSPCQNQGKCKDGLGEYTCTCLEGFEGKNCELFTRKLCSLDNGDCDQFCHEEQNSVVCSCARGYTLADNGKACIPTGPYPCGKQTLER

IC50 (Human FIIa): > 10 µM
inhibition at 1 mg/kg (Human FXa; 10 minutes): 90 ± 6%
inhibition at 1 mg/kg (Human FXa; 30 minutes): 90 ± 1%
inhibition at 1 mg/kg (Human FXa; 60 minutes): 86 ± 2%
inhibition at 1 mg/kg (Human FXa; 120 minutes): 77 ± 6%
inhibition at 1 mg/kg (Human FXa; 180 minutes): 65 ± 12%
Structure (SMILES): CC(=N)N1CCC(Oc2ccc(N(Cc3nc4cc(C(=N)N)ccc4n3CC(=O)N[C@@H](C)c3ccccc3)C(=O)c3ccc(C(=O)O)cc3)cc2)CC1 [Example 17, (S)-4-[N-[5-Amidino-1-(1-phenylethylcarbamoylmethyl)benzimidazole-2-ylmethyl]-N-[4-(1-acetimidoylpiperidin-4-yloxy)phenyl]carbamoyl]benzoic Acid Dihydrochloride]
